Patent publication US9981942B2, “Piperidine derivatives having multimodal activity against pain” (LABORATORIOS DEL DR. ESTEVE S.A., priority 2013, dated 2018)

Each molecule was assayed on σ1 receptor and the μ-opiod receptor (assay: μ and σ1 dual binding: combined class from the Ki of both radioligand assays). Details: combined class for Ki-μ and Ki-σ1; transfected HEK-293 membranes (σ1), transfected CHO-K1 cell membranes (μ).
Parameters: species or system human; key to μ and σ1 dual binding: +: Both Ki-μ and Ki-σ1>=500 nM; ++: One Ki<500 nM while the other Ki is >=500 nM; +++: Both Ki-μ and Ki-σ1<500 nM; ++++: Both Ki-μ and Ki-σ1<100 nM
Summary of the method: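 Classes combine both Ki values, split at 500 nM and 100 nM. Human μ-opioid binding used 1 nM [3H]-DAMGO on CHO-K1 membranes (27 °C, 60 min, pH 7.4, naloxone 10 μM for NSB); human σ1 used 5 nM [3H](+)-pentazocine on HEK-293 membranes (37 °C, 120 min, pH 8, haloperidol 10 μM for NSB).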

Row | Compound | μ and σ1 dual binding
1 | CC(C)S(=O)(=O)Nc1cccc(C2CCN(Cc3cn(Cc4ccc(Cl)cn4)nn3)CC2)n1 [Example 213, N-(6-(1-((1-((5-chloropyridin-2-yl)methyl)-1H-1,2,3-triazol-4-yl)methyl)piperidin-4-yl)pyridin-2-yl)propane-2-sulfonamide] | ++
2 | Oc1cccc(C2CCN(Cc3cn(Cc4ccccn4)cn3)CC2)c1 [Example 188, 3-(1-((1-(pyridin-2-ylmethyl)-1H-imidazol-4-yl)methyl)piperidin-4-yl)phenol] | ++
3 | CN(C)C(=O)Nc1cccc(C2CCN(Cc3cn(-c4ccccc4)nn3)CC2)c1 [Example 38, 1,1-dimethyl-3-(3-(1-((1-phenyl-1H-1,2,3-triazol-4-yl)methyl)piperidin-4-yl)phenyl)urea] | ++
4 | CC(C)S(=O)(=O)Nc1cccc([C@@H]2CCN(Cc3cnn(-c4ccccn4)c3)C[C@@H]2O)c1 [Example 169, N-(3-((3R,4S)-3-hydroxy-1-((1-(pyridin-2-yl)-1H-pyrazol-4-yl)methyl)piperidin-4-yl)phenyl)propane-2-sulfonamide] | ++
5 | CC(C)S(=O)(=O)Nc1cccc(C2CCN(Cc3cn(Cc4ncccc4Cl)nn3)CC2)n1 [Example 212, N-(6-(1-((1-((3-chloropyridin-2-yl)methyl)-1H-1,2,3-triazol-4-yl)methyl)piperidin-4-yl)pyridin-2-yl)propane-2-sulfonamide] | ++
6 | c1ccc(Cn2cc(CN3CCC(c4cccc(-c5ncc[nH]5)c4)CC3)nn2)nc1 [Example 139, 2-((4-((4-(3-(1H-imidazol-2-yl)phenyl)piperidin-1-yl)methyl)-1H-1,2,3-triazol-1-yl)methyl)pyridine] | ++
7 | CS(=O)(=O)Nc1cccc(C2CCN(Cc3cn(C4CCC(F)(F)CC4)nn3)CC2)c1 [Example 68, N-(3-(1-((1-(4,4-difluorocyclohexyl)-1H-1,2,3-triazol-4-yl)methyl)piperidin-4-yl)phenyl)methanesulfonamide] | ++
8 | CC(C)S(=O)(=O)Nc1cccc(C2CCN(Cc3cn([C@H]4c5ccccc5C[C@@H]4O)nn3)CC2)c1 [Example 105, N-(3-(1-((1-((1S,2S)-2-hydroxy-2,3-dihydro-1H-inden-1-yl)-1H-1,2,3-triazol-4-yl)methyl)piperidin-4-yl)phenyl)propane-2-sulfonamide] | ++
9 | CS(=O)(=O)Nc1cccc(C2CCN(Cc3cnn([C@@H]4c5ccccc5C[C@H]4O)c3)CC2)c1 [Example 166, N-(3-(1-((1-((1R,2R)-2-hydroxy-2,3-dihydro-1H-inden-1-yl)-1H-pyrazol-4-yl)methyl)piperidin-4-yl)phenyl)methanesulfonamide] | ++
10 | COc1cccnc1Cn1cc(CN2CCC(c3cccc(O)c3)CC2)nn1 [Example 158, 3-(1-((1-((3-methoxypyridin-2-yl)methyl)-1H-1,2,3-triazol-4-yl)methyl)piperidin-4-yl)phenol] | ++
11 | Oc1cccc(C2CCN(Cc3cn([C@@H]4CCC[C@H]4O)nn3)CC2)c1 (racemic) [Example 5, (±)-(trans)-3-(1-((1-(2-hydroxycyclopentyl)-1H-1,2,3-triazol-4-yl)methyl)piperidin-4-yl)phenol] | ++

Same assay, conditions: transfected HEK-293 membranes (σ1), transfected CHO-K1 cell membranes (μ)

Row | Compound | Ki range for both μ and σ1 (dual-binding class) [nM]
12 | Oc1cccc(C2CCN(Cc3cn([C@H]4CC[C@H](C(F)(F)F)CC4)nn3)CC2)c1 [Example 83, 3-(1-((1-((1r,4r)-4-(trifluoromethyl)cyclohexyl)-1H-1,2,3-triazol-4-yl)methyl)piperidin-4-yl)phenol] | < 100
13 | COc1ccc(-n2cc(CN3CCC(c4cccc(O)c4)CC3)nn2)nc1 [Example 217, 3-(1-((1-(5-methoxypyridin-2-yl)-1H-1,2,3-triazol-4-yl)methyl)piperidin-4-yl)phenol] | < 500
14 | Oc1cccc(C2CCN(Cc3cn(Cc4ccccc4)nn3)CC2)c1 [Example 8, 3-(1-((1-benzyl-1H-1,2,3-triazol-4-yl)methyl)piperidin-4-yl)phenol] | < 100
15 | CS(=O)(=O)Nc1cccc(C2CCN(Cc3cn(Cc4ccc(C(F)(F)F)cc4)nn3)CC2)c1 [Example 57, N-(3-(1-((1-(4-(trifluoromethyl)benzyl)-1H-1,2,3-triazol-4-yl)methyl)piperidin-4-yl)phenyl)methanesulfonamide] | < 500
16 | Oc1cccc(C2CCN(Cc3cn(-c4ccc(F)cn4)nn3)CC2)c1 [Example 143, 3-(1-((1-(5-fluoropyridin-2-yl)-1H-1,2,3-triazol-4-yl)methyl)piperidin-4-yl)phenol] | < 100
17 | CS(=O)(=O)Nc1cccc(C2CCN(Cc3cn(Cc4ccccc4)cn3)CC2)c1 [Example 183, N-(3-(1-((1-benzyl-1H-imidazol-4-yl)methyl)piperidin-4-yl)phenyl)methanesulfonamide] | < 500
18 | Oc1cccc(C2CCN(Cc3cn(-c4ccc(F)c(F)c4)nn3)CC2)c1 [Example 147, 3-(1-((1-(3,4-difluorophenyl)-1H-1,2,3-triazol-4-yl)methyl)piperidin-4-yl)phenol] | < 100
19 | NC(=O)c1cccc(C2CCN(Cc3cn(-c4ccccc4)nn3)CC2)c1 [Example 6, 3-(1-((1-phenyl-1H-1,2,3-triazol-4-yl)methyl)piperidin-4-yl)benzamide] | < 500
20 | Oc1cccc(C2CCN(Cc3cn(-c4ccccc4)nn3)CC2)c1 [Example 2, 3-(1-((1-phenyl-1H-1,2,3-triazol-4-yl)methyl)piperidin-4-yl)phenol] | < 100
21 | CC(C)S(=O)(=O)Nc1cccc(C2CCN(Cc3cn(Cc4cccc(F)n4)nn3)CC2)c1 [Example 116, N-(3-(1-((1-((6-fluoropyridin-2-yl)methyl)-1H-1,2,3-triazol-4-yl)methyl)piperidin-4-yl)phenyl)propane-2-sulfonamide] | < 500
22 | Oc1cccc(C2CCN(Cc3cn(Cc4ccccc4F)nn3)CC2)c1 [Example 4, 3-(1-((1-(2-fluorobenzyl)-1H-1,2,3-triazol-4-yl)methyl)piperidin-4-yl)phenol] | < 100
23 | CS(=O)(=O)Nc1cc(C2CCN(Cc3cn(-c4ccccc4)nn3)CC2)ccn1 [Example 197, N-(4-(1-((1-phenyl-1H-1,2,3-triazol-4-yl)methyl)piperidin-4-yl)pyridin-2-yl)methanesulfonamide] | ≥ 500
24 | CC(C)S(=O)(=O)Nc1cccc(C2CCN(Cc3cn(Cc4ncccc4F)nn3)CC2)c1 [Example 114, N-(3-(1-((1-((3-fluoropyridin-2-yl)methyl)-1H-1,2,3-triazol-4-yl)methyl)piperidin-4-yl)phenyl)propane-2-sulfonamide] | < 500
25 | Oc1cccc(C2CCN(Cc3cnn(Cc4ccccn4)c3)CC2)c1 [Example 171, 3-(1-((1-(pyridin-2-ylmethyl)-1H-pyrazol-4-yl)methyl)piperidin-4-yl)phenol] | < 500
26 | CC(C)NC(=O)c1cccc(C2CCN(Cc3cn(Cc4ccccc4)nn3)CC2)c1 [Example 51, 3-(1-((1-benzyl-1H-1,2,3-triazol-4-yl)methyl)piperidin-4-yl)-N-isopropylbenzamide] | ≥ 500
27 | CS(=O)(=O)Nc1cccc(C2CCN(Cc3cn(-c4ccccc4)nn3)CC2)c1 [Example 62, N-(3-(1-((1-phenyl-1H-1,2,3-triazol-4-yl)methyl)piperidin-4-yl)phenyl)methanesulfonamide] | < 100
28 | Oc1cccc(C2CCN(Cc3cn(Cc4cccc(F)c4)nn3)CC2)c1 [Example 63, 3-(1-((1-(3-fluorobenzyl)-1H-1,2,3-triazol-4-yl)methyl)piperidin-4-yl)phenol] | < 100
29 | Cc1nnc(-c2cccc(C3CCN(Cc4cn(-c5ccccc5)nn4)CC3)c2)o1 [Example 42, 2-methyl-5-(3-(1-((1-phenyl-1H-1,2,3-triazol-4-yl)methyl)piperidin-4-yl)phenyl)-1,3,4-oxadiazole] | < 500
30 | CC(c1ccccn1)n1cc(CN2CCC(c3cccc(O)c3)CC2)nn1 (centres unmarked) [Example 75, 3-(1-((1-(1-(pyridin-2-yl)ethyl)-1H-1,2,3-triazol-4-yl)methyl)piperidin-4-yl)phenol] | < 500
31 | CC(=O)Nc1cc(F)cc(C2CCN(Cc3cn(-c4ccccc4)nn3)CC2)c1 [Example 39, N-(3-fluoro-5-(1-((1-phenyl-1H-1,2,3-triazol-4-yl)methyl)piperidin-4-yl)phenyl)acetamide] | < 500
32 | Cc1ccc(F)c(-n2cc(CN3CCC(c4cccc(O)c4)CC3)nn2)c1 [Example 224, 3-(1-((1-(2-fluoro-5-methylphenyl)-1H-1,2,3-triazol-4-yl)methyl)piperidin-4-yl)phenol] | < 100
33 | c1ccc(-n2cc(CN3CCC(c4cccc(Nc5nccs5)c4)CC3)nn2)cc1 [Example 225, N-(3-(1-((1-phenyl-1H-1,2,3-triazo1-4-yl)methyl)piperidin-4-yl)phenyl)thiazol-2-amine] | < 100
34 | CC(C)S(=O)(=O)Nc1cccc(C2CCN(Cc3cn(Cc4ccccc4)nn3)CC2)c1 [Example 79, N-(3-(1-((1-benzyl-1H-1,2,3-triazol-4-yl)methyl)piperidin-4-yl)phenyl)propane-2-sulfonamide] | < 500
35 | CC(c1ccccc1)n1cc(CN2CCC(c3cccc(NS(C)(=O)=O)c3)CC2)nn1 (centres unmarked) [Example 76, N-(3-(1-((1-(1-phenylethyl)-1H-1,2,3-triazol-4-yl)methyl)piperidin-4-yl)phenyl)methanesulfonamide] | < 500
